These results are taken from ChEMBL document CHEMBL2429770, “Development of Mycobacterium tuberculosis whole cell screening hits as potential antituberculosis agents” (J Med Chem, 2013).

For assay [1], the system named is Mycobacterium tuberculosis. Briefly: Antimycobacterial activity against Mycobacterium tuberculosis H37Rv. Format: functional.
The nature of assay [2]: Inhibition of Mycobacterium tuberculosis PtpB.

Usually MIC stands for the smallest concentration in the dilution series that meets the test's criterion for growth inhibition. A high value points to a less susceptible organism. In assay [1], `Cc1cccc(-c2nc(Nc3ccncn3)c3c(C)csc3n2)n1` had a minimum inhibitory concentration (MIC) of 0.76 µM. This lies in the sub-micromolar range.

With `O=C(NC12CC3CC(CC(C3)C1)C2)c1cc2cc(Cl)ccc2[nH]1`, inhibition of growth in assay [1] (MIC) required 0.47 µM. Compared with the last molecule, the MIC is about 1.6-fold lower.

`CCCCCCCCCCN1CCCC(O/N=C2\[C@H](C)C[C@@](C)(OC)[C@H](O[C@@H]3O[C@H](C)C[C@H](N(C)C)[C@H]3O)[C@@H](C)C(=O)[C@@H](C)C(=O)O[C@H](CC)[C@@](C)(O)[C@H](O)[C@H]2C)C1` (some centres not stated) gave an MIC in assay [1] of 0.125 µM.

On to `c1cc2c(s1)CCOC21CCN(Cc2ccc3c(c2)OCCO3)CC1`, for which, in assay [1], the minimum inhibitory concentration (MIC) came out at 0.38 µM.

In assay [1], `COC(=O)c1nc(N)sc1Cc1ccccc1` registered an MIC of 0.06 µg/mL.

As a reminder, the Ki is the equilibrium dissociation constant of an inhibitor or competing ligand from its target. Read a high Ki as a looser hold on the target. `O=C(O)c1cc(-c2ccc(-c3ccc(F)c(C(F)(F)F)c3)cc2C2CCCCC2)on1` showed a Ki in assay [2] of 220 nM.

In turn, `COc1ccc(CCNc2cc(-c3ccccc3)nc3ncnn23)cc1` yielded a minimum inhibitory concentration (MIC) in assay [1] of 0.94 µM.

For `O=P(O)(O)C(F)(F)c1ccc(-c2ccc(F)c(C(F)(F)F)c2)cc1C1CCCCC1`, the Ki in assay [2] amounted to 690 nM.

As to `COc1ccc2nc(C)cc(OCC(=O)Nc3ccccc3OC)c2c1`, in assay [1], the MIC came out at 0.7 µM.

`Cc1ccc2nc(C)c(C(=O)NCc3cccs3)n2c1` displayed an MIC in assay [1] of 0.19 µM.

Molecule `Cc1sc(N)nc1C(=O)O` displayed a minimal inhibitory concentration (MIC) in assay [1] of 0.06 µg/mL.

Regarding `CCc1ccc([C@@H]2C[C@H](C(F)(F)F)n3ncc(C(=O)NCc4ccc(OC)cc4)c3N2)cc1`, the minimum inhibitory concentration (MIC) in assay [1] came to 0.25 µM.
